From US20020051811A1, “Method and composition for masking mineral taste” (priority 1999, published 2002) come the findings set out here.

Holding throughout (assay type): in vivo
Assay [1] in a line: Expert panel evaluation of taste modifiers on taste of KCl solutions. To be noted: 1.26% KCl, score 0-8. Here is the method: Additional testing was conducted, comparing the absence of taste modifiers with the three taste modifiers of the invention, both separately, and in combinations (AK and glycyrrhizin) (AK and tannic acid) (glycyrrhizin and tannic acid). […] In this study, again, 1.26% KCl was prepared, and used as the test medium for all experiments. The aqueous solution was evaluation by an expert panel for each of the taste attributes. The panel consisted of eight individuals who were screened for their taste acuity and trained in the use of the score sheet. The score sheet employed by the panel appears as Table III hereto.

The nature of assay [2]: AK added at low levels to solutions containing KCl, perceived bitter aftertaste. To be noted: 1 to 5 mg/100 ml. The protocol: The level of AK used was 1 to 5 mg/100 ml, which is equivalent in sweetness contribution to between 0.2% and 1% sucrose. This characteristic is specific to AK, and is not noted when […].
Assay [3] in a line: Effect of glycyrrhizin on potassium-containing beverages (taste scores). Particulars: for effect on aftertaste of KCl: 20-40 mg/100 cc, beverage containing 2.52% KCl by weight; for Bitter / Metallic / Salt: 2.52% KCl beverage, scale 0 to 8. The source says: The effect of glycyrrhizin on potassium-containing beverages was studied.
Assay [4] in a line: Effect of tannic acid on potassium-containing beverages (taste scores). To be noted: for Aftertaste / Bitter / Salt: 1.26% KCl beverage, scale 0 to 8. An excerpt: The effect of tannic acid on potassium-containing beverages was studied.

Marks after values point to notes of the source that are not given here. Residues, ends and D or L forms follow the SMILES beside them.

`CC1=CC(=O)NS(=O)(=O)O1` [Acesulfame-K, acesulfame potassium]: in assay [1] (modifier 2.5 mg/100 cc), the Bitter is reported as 3.0*, the Other was 2.8*, the Salt is given as 2.8 and the Sour stood at 0.0. The Sweet in assay [1] (modifier 2.5 mg/100 cc) came to 0.0. Also, in assay [1] (modifier 5.0 mg/100 cc), the Bitter is 2.3*, the Other is 2.2*, the Salt turned out to be 2.3 and the Sour worked out at 0.0. In addition, the Sweet in assay [1] (modifier 5.0 mg/100 cc) is reported as 0.0. For the same molecule, in assay [1] (modifier 7.5 mg/100 cc), the Bitter is 1.8*, the Other is 0.5*, the Salt is 1.5* and the Sour amounted to 0.0. Besides, in assay [1] (modifier 7.5 mg/100 cc), the Sweet worked out at 1.3. Moreover, the “effect on perceived bitter aftertaste of KCl solutions” value (shortened to “effect on perceived bitter aftertaste”) in assay [2] is recorded as “reduced the perceived bitter aftertaste”.
Consider `COC(=O)[C@H](Cc1ccccc1)NC(=O)[C@@H](N)CC(=O)O` [aspartame] (HELM PEPTIDE1{D.F.[CO[*:1]]}$$$$V2.0), for which the “effect on perceived bitter aftertaste” value in assay [2] is given as “not noted”.
On to `CC1(C)[C@@H](O[C@H]2O[C@H](C(=O)O)[C@@H](O)[C@H](O)[C@H]2O[C@@H]2O[C@H](C(=O)O)[C@@H](O)[C@H](O)[C@H]2O)CC[C@]2(C)[C@H]3C(=O)C=C4[C@@H]5C[C@@](C)(C(=O)O)CC[C@]5(C)CC[C@@]4(C)[C@]3(C)CC[C@@H]12` [glycyrrhizin], for which the Bitter in assay [1] (modifier 5.0 mg/100 cc) is on record as 2.0*; in assay [1] (modifier 10.0 mg/100 cc), 3.3*; in assay [1] (modifier 20.0 mg/100 cc), 2.3*; in assay [3] (+20 mg/100 cc glycyrrhizin), 2.5; in assay [3] (+40 mg/100 cc glycyrrhizin) it was 2.5. Moreover, the values for the Other in assay [1] (modifier 5.0 mg/100 cc), in assay [1] (modifier 10.0 mg/100 cc) and in assay [1] (modifier 20.0 mg/100 cc) were 1.0*, 2.0* and 2.0*, respectively. The Salt in assay [1] (modifier 5.0 mg/100 cc) was determined as 3.5; in assay [1] (modifier 10.0 mg/100 cc), 2.3; in assay [1] (modifier 20.0 mg/100 cc) it was 2.0; in assay [3] (+20 mg/100 cc glycyrrhizin), 2.5; in assay [3] (+40 mg/100 cc glycyrrhizin), 2.0. The Sour in assay [1] (modifier 5.0 mg/100 cc), in assay [1] (modifier 10.0 mg/100 cc) and in assay [1] (modifier 20.0 mg/100 cc) was 0.0 each time. Also, the Sweet in assay [1] (modifier 5.0 mg/100 cc) amounted to 0.0; in assay [1] (modifier 10.0 mg/100 cc), 0.0; in assay [1] (modifier 20.0 mg/100 cc) it was 0.5. The “effect on aftertaste of KCl” value in assay [3] is “effective in reducing the aftertaste of KCl”; in assay [3] (listed as Glycyrrhizin), “effective in reducing the bitter and metallic aftertaste of KCl”. The Metallic in assay [3] (+20 mg/100 cc glycyrrhizin) and in assay [3] (+40 mg/100 cc glycyrrhizin) was 2.0 in each case.
Take `O=C1NS(=O)(=O)c2ccccc21` [saccharin]: in assay [2], the “effect on perceived bitter aftertaste” value is “not noted”.
For `O=C(OC[C@H]1O[C@@H](OC(=O)c2cc(O)c(O)c(OC(=O)c3cc(O)c(O)c(O)c3)c2)[C@H](OC(=O)c2cc(O)c(O)c(OC(=O)c3cc(O)c(O)c(O)c3)c2)[C@@H](OC(=O)c2cc(O)c(O)c(OC(=O)c3cc(O)c(O)c(O)c3)c2)[C@@H]1OC(=O)c1cc(O)c(O)c(OC(=O)c2cc(O)c(O)c(O)c2)c1)c1cc(O)c(O)c(OC(=O)c2cc(O)c(O)c(O)c2)c1` [tannic acid], in assay [4] (+5 mg/100 cc tannic acid), the Aftertaste turned out to be 1.0, the Bitter stood at 1.0 and the Salt is given as 1.5. Further, in assay [4] (+10 mg/100 cc tannic acid), the Aftertaste is reported as 1.0, the Bitter was determined as 1.0 and the Salt turned out to be 1.0. Also, in assay [4] (+50 mg/100 cc tannic acid), the Aftertaste came out at 1.0, the Bitter came to 2.5 and the Salt stood at 1.5. In addition, the “effect on bitter aftertaste and salty taste” value in assay [4] (beverage containing 1.26% KCl) is reported as “reduces the level of bitter aftertaste without increasing the salty taste”. In assay [4] (levels as low as 5 mg/100 cc, beverage containing 1.26% KCl by weight), the “effect on aftertaste of KCl” value is “effective in reducing and eliminating the aftertaste of KCl”. For the same molecule, in assay [1] (modifier 1.0 mg/100 cc), the Bitter is recorded as 3.0*, the Other was 3.3*, the Salt is recorded as 3.3 and the Sour was determined as 0.0. The Sweet in assay [1] (modifier 1.0 mg/100 cc) is listed as 0.0. In addition, in assay [1] (modifier 5.0 mg/100 cc), the Bitter is 2.0*, the Other is 3.0*, the Salt is 3.8 and the Sour is given as 0.0. Besides, the Sweet in assay [1] (modifier 5.0 mg/100 cc) was 0.0. Also, in assay [1] (modifier 10.0 mg/100 cc), the Bitter was 2.0*, the Other is given as 2.0*, the Salt came out at 2.0 and the Sour stood at 0.0. For the same molecule, the Sweet in assay [1] (modifier 10.0 mg/100 cc) was found to be 0.0.
